Data from patent US20260072027A1, “Peptides And Method” (Queen Mary University of London, priority 2022, published 2026).
Blank lines part the entries; values can stand above or below the substance they belong to. Where no end group is shown, it is not given here. [ ]: non-standard residue; d: D form. Dopa = N[C@@H](Cc1ccc(O)c(O)c1)C(=O)O

How the values were obtained:
[1] = system: CD4+ T-cells (PBMCs); experiment: In vitro peptide stimulation and T-cell proliferation assay, CD4+; assay type: cell-based, human
Description: (§1) In vitro peptide stimulation and T-cell proliferation assay. Peripheral blood mononuclear cells (PBMCs) were freshly isolated from type 1 diabetes and healthy individuals using Ficoll-Hypaque density gradient centrifugation. PBMCs were labelled with the fluorescent dye CellTrace Violet (Invitrogen, Thermo Fisher Scientific) and cultured (2×10^5 cells/well) in round-bottom 96-well plates (Falcon, Becton Dickinson) with RPMI-1640 medium (Gibco, Thermo Fisher Scientific) supplemented with 5% autologous plasma in the presence or not of insulin peptides (20 μg/ml); PPD (10 μg/ml) and anti-CD3 (0.1 μg/ml; clone OKT3) were used as positive control. Two scrambled peptides: […] (SEQ ID NO: 17), […] (SEQ ID NO: 18), and the Exendin 9-39 fragment were used as negative controls. After 7 days, PBMCs were stained with PE-Cy7 anti-CD8 (clone RPA-T8, BD Pharmingen) and FITC anti-CD3 (clone UCHT1, BD Pharmingen). Samples were analysed by using a FACSCanto II (BD Bioscience) to evaluate T-cell proliferation measured as CellTrace Violet dilution. Cytofluorimetric analyses were performed using FlowJo Software (FlowJo, LLC). The results were given as stimulation index (SI), calculated as percentage of stimulated T-cell subset proliferation/percentage of unstimulated T-cell subset proliferation. Assay for detection of peptide specific T cells subsets was done as previously described (detailed in ESM methods, Assay for detection of peptide specific T cells)
(§2) T-cell stimulation with oxPTM-INSPs. To evaluate the immune cell response against the oxPTM-INSPs, we performed CD4+ and CD8+ T cells proliferation experiments using freshly isolated PBMCs (Study cohort 2, Table 1). Response was calculated as stimulatory index (SI) over unstimulated T-cells.

[2] = system: CD8+ T-cells (PBMCs); experiment: In vitro peptide stimulation and T-cell proliferation assay, CD8+; assay type: cell-based, human
Description: as §1, §2

[3] = system: serum IgG autoantibodies; experiment: ELISA for autoantibody detection: serum antibody binding to native and oxPTM insulin peptides; parameters: species or system human; settings: for % binders, Healthy controls / Mean ± SEM (absorbance, OD), Healthy controls / % binders, Type 1 diabetes: Study cohort 1; for % binders, Type 1 diabetes: cut-off = mean of healthy controls to Nt-INSP plus 3 SEM; for Mean ± SEM (absorbance, OD), Type 1 diabetes: Study cohort 1 sera; for type 1 diabetes binders (IgG autoantibody reactivity): Study cohort 2, N = 18; for Antibody reactivity of serum samples (in words): ELISA
Experimental: ELISA for autoantibody detection. The ELISA analysis of Nt-INS and oxPTM-INS autoantibodies was performed as previously described [18](detailed in ESM methods, ELISA assay for antibody detection).
Statistical analyses. Statistical analyses were performed using Prism Software 9.0 (GraphPad, San Diego, CA, USA). Cut-off points of positivity (binders) in the antibody ELISA for each peptide were defined by the mean of optical absorbance (O.D) of healthy controls to the corresponding Nt-INSP plus three times the standard error of the mean (SEM). Specificity and sensitivity were evaluated by receiver operating characteristic (ROC) curve analysis. Area under the curve (AUC) is reported as absolute value and was tested for equality according to DeLong et al. Differences in antibody levels and T-cell stimulation indices (SI) between groups were tested by the One way ANOVA or Student's t-tests as appropriate. Correlation analyses were tested by Pearson or Spearman's test, as appropriate. Categorical analyses were performed by Chi-square or McNemar's tests, as appropriate. For each set of experiments, p values were adjusted for multiple comparison using the Holm-Sidak's test. Hierarchical cluster and Principal Component Analysis (PCA) was done using Clustvis software (https://biit.cs.ut.ee/clustvis/) and Prism Software 9.0, respectively.
Antibody reactivity of type 1 diabetes serum against the candidate oxPTM-INSP. Identified peptide candidates were synthesised and exposed to either HOCl or ^●OH to generate oxPTM-INSPs that were first assessed by TOF-MS/ES+TIC to confirm modification (FIG. 17). Antibody response against native INSPs (Nt-INSPs) and oxPTM-INSPs was evaluated by ELISA using sera from Study cohort 1.
ESM Methods ELISA assay for antibody detection. The ELISA analysis of native (Nt-INS) and modified insulin (oxPTM-INS) was performed as previously described. Briefly, the ELISA plate was coated overnight at 4° C. with 100 μl per well of modified or native insulin in 0.05 M carbonate/bicarbonate buffer pH 9.6 at 10 μg/ml. The next day, the plates were washed 3 times with 0.1% Tween PBS, followed by blocking for 2 hours at room temperature with 200 μl per well of 5% BSA in 0.1% Tween PBS. After washing, 100 μl of 1:200-diluted serum samples in 5% BSA-0.1% Tween PBS were added for additional 2 hours incubation. ELISA plates were then washed 3 times with 0.1% Tween PBS followed by probing with anti-human IgG horse radish peroxidase conjugated (HRP, Sigma) at 1:1,000 dilution in 5% BSA-0.1% Tween PBS for another 1.5 hours incubation. The ELISA plates were washed, and 100 μg/ml TMB substrate in 0.1M sodium acetate pH 6.0 plus 2 μl/10 ml of H2O2, were added. Subsequently, the reaction was stopped with 20% v/v sulphuric acid. The optical density (O.D.) was measured at 450 nm using a GENios plate reader and Magellan software (TECAN, Dorset, UK).

Substance: ERGFFYTPKTR (Ac-ERGFFYTPKTR) [INSP-6 with C-terminal arginine]
CD4+ T-cell response, subjects with SI > 1 (%) ([1]; Controls (N = 11)): (36.4%)
CD4+ T-cell response, subjects with SI > 3 (%) ([1]; Controls (N = 11)): (0.0%)
CD4+ T-cell response, subjects with SI > 5 (%) ([1]; Controls (N = 11)): (0.0%)
CD4+ T-cell response, subjects with SI > 10 (%) ([1]; Controls (N = 11)): (0.0%)
CD4+ T-cell response, subjects with SI > 1 (%) ([1]; Type 1 diabetes (N = 18)): (55.6%)
CD4+ T-cell response, subjects with SI > 3 (%) ([1]; Type 1 diabetes (N = 18)): (27.8%)
CD4+ T-cell response, subjects with SI > 5 (%) ([1]; Type 1 diabetes (N = 18)): (21.1%)
CD4+ T-cell response, subjects with SI > 10 (%) ([1]; Type 1 diabetes (N = 18)): (11.1%)
CD8+ T-cell response, subjects with SI > 1 (%) ([2]; Controls (N = 11)): (27.3%)
CD8+ T-cell response, subjects with SI > 3 (%) ([2]; Controls (N = 11)): (0.0%)
CD8+ T-cell response, subjects with SI > 5 (%) ([2]; Controls (N = 11)): (0.0%)
CD8+ T-cell response, subjects with SI > 10 (%) ([2]; Controls (N = 11)): (0.0%)
CD8+ T-cell response, subjects with SI > 1 (%) ([2]; Type 1 diabetes (N = 18)): (44.4%)
CD8+ T-cell response, subjects with SI > 3 (%) ([2]; Type 1 diabetes (N = 18)): (16.7%)
CD8+ T-cell response, subjects with SI > 5 (%) ([2]; Type 1 diabetes (N = 18)): (16.7%)
CD8+ T-cell response, subjects with SI > 10 (%) ([2]; Type 1 diabetes (N = 18)): (16.7%)

Substance: FVNQHLC [INSP-5, insulin B:1-7 peptide]
Antibody reactivity of serum samples (in words) [3]: No significant reactivity

Substance: INSP-3 oxPTM-HOCI: INSP-3 peptide oxidised in house by HOCl (SLYQLENYCN; not fully specified (N-terminus); also: oxidised by HOCl, modified residues not defined)
% binders, Healthy controls ([3]; in house modifications): 40%
Mean ± SEM (absorbance, OD), Healthy controls ([3]; in house modifications): 0.452 ± 0.048
% binders, Type 1 diabetes ([3]; in house modifications): 53%
Mean ± SEM (absorbance, OD), Type 1 diabetes ([3]; in house modifications): 0.473 ± 0.037

Substance: INSP-3 oxPTM-•OH: INSP-3 peptide oxidised in house by hydroxyl radical (SLYQLENYCN; not fully specified (N-terminus); also: oxidised by hydroxyl radical, modified residues not defined)
% binders, Healthy controls ([3]; in house modifications): 86%
Mean ± SEM (absorbance, OD), Healthy controls ([3]; in house modifications): 0.617 ± 0.042
% binders, Type 1 diabetes ([3]; in house modifications): 86%
Mean ± SEM (absorbance, OD), Type 1 diabetes ([3]; in house modifications): 0.667 ± 0.044
Mean ± SEM (absorbance, OD), Type 1 diabetes ([3]; in house modifications, listed as ●OH-modified oxPTM-INSP-3): 0.667±0.044

Substance: INSP-4 oxPTM-HOCI: INSP-4 peptide oxidised in house by HOCl (LVEALYLVCGERGFFYTPKT; also: oxidised by HOCl, modified residues not defined)
% binders, Healthy controls ([3]; in house modifications): 27%
Mean ± SEM (absorbance, OD), Healthy controls ([3]; in house modifications): 0.296 ± 0.022
% binders, Type 1 diabetes ([3]; in house modifications): 66%
Mean ± SEM (absorbance, OD), Type 1 diabetes ([3]; in house modifications): 0.563 ± 0.053
Mean ± SEM (absorbance, OD), Type 1 diabetes ([3]; in house modifications, listed as HOCl-modified oxPTM-INSP-4): 0.563±0.053

Substance: INSP-4 oxPTM-•OH: INSP-4 peptide oxidised in house by hydroxyl radical (LVEALYLVCGERGFFYTPKT; also: oxidised by hydroxyl radical, modified residues not defined)
% binders, Healthy controls ([3]; in house modifications): 27%
Mean ± SEM (absorbance, OD), Healthy controls ([3]; in house modifications): 0.344 ± 0.022
% binders, Type 1 diabetes ([3]; in house modifications): 58%
Mean ± SEM (absorbance, OD), Type 1 diabetes ([3]; in house modifications): 0.539 ± 0.068

Substance: INSP-6 oxPTM-HOCI: INSP-6 peptide oxidised in house by HOCl (ERGFFYTPKT; not fully specified (N-terminus); also: oxidised by HOCl, modified residues not defined)
% binders, Healthy controls ([3]; in house modifications): 25%
Mean ± SEM (absorbance, OD), Healthy controls ([3]; in house modifications): 0.312 ± 0.019
% binders, Type 1 diabetes ([3]; in house modifications): 43%
Mean ± SEM (absorbance, OD), Type 1 diabetes ([3]; in house modifications): 0.391 ± 0.013

Substance: LVEALYLVCGER [INSP-2, insulin B:11-22 peptide]
Antibody reactivity of serum samples (in words) [3]: No significant reactivity

Second part, led by results:

% binders, Healthy controls ([3]; in silico modifications): 30%
Mean ± SEM (absorbance, OD), Healthy controls ([3]; in silico modifications): 0.357 ± 0.030
% binders, Type 1 diabetes ([3]; in silico modifications): 100%
Mean ± SEM (absorbance, OD), Type 1 diabetes ([3]; in silico modifications): 0.536 ± 0.021
type 1 diabetes binders (IgG autoantibody reactivity) [3]: 55.5%
Substance: ERGYY-DOPA-TPKT (ERGYY[Dopa]TPKT) [in silico designed oxPTM-INSP-6 derivative]
CD4+ T-cell response, subjects with SI > 1 (%) ([1]; Controls (N = 11)): (27.3%)
CD4+ T-cell response, subjects with SI > 3 (%) ([1]; Controls (N = 11)): (0.0%)
CD4+ T-cell response, subjects with SI > 5 (%) ([1]; Controls (N = 11)): (0.0%)
CD4+ T-cell response, subjects with SI > 10 (%) ([1]; Controls (N = 11)): (0.0%)
CD4+ T-cell response, subjects with SI > 1 (%) ([1]; Type 1 diabetes (N = 18)): (50.0%)
CD4+ T-cell response, subjects with SI > 3 (%) ([1]; Type 1 diabetes (N = 18)): (5.6%)
CD4+ T-cell response, subjects with SI > 5 (%) ([1]; Type 1 diabetes (N = 18)): (5.2%)
CD4+ T-cell response, subjects with SI > 10 (%) ([1]; Type 1 diabetes (N = 18)): (5.6%)
CD8+ T-cell response, subjects with SI > 1 (%) ([2]; Controls (N = 11)): (18.2%)
CD8+ T-cell response, subjects with SI > 3 (%) ([2]; Controls (N = 11)): (9.10%)
CD8+ T-cell response, subjects with SI > 5 (%) ([2]; Controls (N = 11)): (0.0%)
CD8+ T-cell response, subjects with SI > 10 (%) ([2]; Controls (N = 11)): (0.0%)
CD8+ T-cell response, subjects with SI > 1 (%) ([2]; Type 1 diabetes (N = 18)): (27.8%)
CD8+ T-cell response, subjects with SI > 3 (%) ([2]; Type 1 diabetes (N = 18)): (0.0%)
CD8+ T-cell response, subjects with SI > 5 (%) ([2]; Type 1 diabetes (N = 18)): (0.0%)
CD8+ T-cell response, subjects with SI > 10 (%) ([2]; Type 1 diabetes (N = 18)): (0.0%)

% binders, Healthy controls ([3]; in house modifications): 12%
Mean ± SEM (absorbance, OD), Healthy controls ([3]; in house modifications): 0.280 ± 0.020
% binders, Type 1 diabetes ([3]; in house modifications): 83%
Mean ± SEM (absorbance, OD), Type 1 diabetes ([3]; in house modifications): 0.461 ± 0.013
Mean ± SEM (absorbance, OD), Type 1 diabetes ([3]; in house modifications, listed as ●OH-modified oxPTM-INSP-6): 0.461±0.013
Substance: INSP-6 oxPTM-•OH: INSP-6 peptide oxidised in house by hydroxyl radical (ERGFFYTPKT; not fully specified (N-terminus); also: oxidised by hydroxyl radical, modified residues not defined)

Antibody reactivity of serum samples (in words) [3]: No reactivity
Substance: LVEALYLVCG

type 1 diabetes binders (IgG autoantibody reactivity) [3]: 33.3%
Substance: Nt-INS: native human recombinant insulin

Antibody reactivity of serum samples (in words) [3]: No significant reactivity
Substance: YLVCGERGFF [INSP-1, insulin B:16-25 peptide]

type 1 diabetes binders (IgG autoantibody reactivity) [3]: 50%
Substance: ^●OH-INS: insulin modified by hydroxyl radical
